Measurements as given in patent US8796296B2, “Aminopyrimidine derivatives as LRRK2 modulators” (Genentech, Inc., priority 2011, dated 2014).

Molecular target: LRRK2 (Homo sapiens (Human), UniProt Q5S007, G2019S)
Test: In Vitro LRRK2 LabChip Assay (LRRK2 Ki)
Type: biochemical
Protocol: In Vitro LRRK2 LabChip Assay
This assay was used to determine a compound's potency in inhibiting activity of LRRK2 by determining, Kiapp, IC50, or percent inhibition values. In a polypropylene plate, LRRK2, fluorescently-labeled peptide substrate, ATP and test compound were incubated together. Using a LabChip 3000 (Caliper Life Sciences), after the reaction the substrate was separated by capillary electrophoresis into two populations: phosphorylated and unphosphorylated. The relative amounts of each were quantitated by fluorescence intensity. LRRK2 Ki was determined according to the equation: Y=V0*(1−((x+Ki*(1+S/Km)+Et)/(2*Et)−(((x+Ki*(1+S/Km)+Et)^2−(4*Et*x))^0.5)/(2*Et))). Ki values in Table 4 and elsewhere herein are shown in μM.
Assay conditions and materials used were as follows:
LRRK2 Wild type in 5 mM MgCl2: 15 nM (Invitrogen lot #500607F)
Kinase reaction time: 2 hours
Wild type in 5 mM MgCl2: 80 μM
Kinase: LRRK2 G2019S (Invitrogen cat #PV4882). • LRRK2 Wild type (Invitrogen cat #PV4874).
Substrate: 5FAM-GAGRLGRDKYKTLRQIRQ-CONH2
Complete Reaction Buffer: H2O/25 mM Tris, pH 8.0/5 mM MgCl2/2 mM DTT/0.01% Triton X-100.
For serial dilutions, 34.6 μl DMSO was added to columns 3-24. For the assay controls, 37.5 μl DMSO was added to columns 1 and 2 of rows A and P. a,d and 50 μl 25 μM G-028831 (Staurosporine) was added to columns 1 and 2, row B. For the samples: to start at 100 μM, 37.5 μl DMSO was to columns 1 and 2, then 12.5 μl 10 mM compound; to start at 10 μM, 78 μl DMSO was added to columns 1 & 2, then 2 μl 10 mM compound; and to start at 1 μM, 25 μM compound (2 μl 10 mM cmpd+798 μl DMSO) was added to empty columns 1 and 2. A Precision instrument was used to perform 1:3.16 serial dilutions (“PLK_BM_serial_halflog”).
ATP was diluted to 282.1 μM in Complete Kinase Buffer (final concentration was 130 μM).
In Complete Reaction Buffer, substrate was diluted to 4 μM. Equal volumes of Complete Reaction Buffer and 4 μM substrate were combined to obtain the blank. Equal volumes of Complete Reaction Buffer and 4 μM substrate were combined and to the combined solution was added 2× final LRRK2 concentration.
To a 50 μl polypropylene plate, 5 μl/well buffer/substrate was added by hand to Blank wells. A Biomek FX was used to start the kinase reaction (“PLK SAR 23 ATP”). The following were added to the appropriate wells:
The plate was incubated for 2 hours in the dark. Biomek FX was used to stop the kinase reaction (“PLK Stop”), and 10 μl/well Stop solution was added to the Assay Plate.
Results were read on the LabChip 3000.
The LabChip 3000 was run using the job “LRRK2 IC50” with the following job settings: […]

LRRK2, sequence (Q5S007 whole entry G2019S): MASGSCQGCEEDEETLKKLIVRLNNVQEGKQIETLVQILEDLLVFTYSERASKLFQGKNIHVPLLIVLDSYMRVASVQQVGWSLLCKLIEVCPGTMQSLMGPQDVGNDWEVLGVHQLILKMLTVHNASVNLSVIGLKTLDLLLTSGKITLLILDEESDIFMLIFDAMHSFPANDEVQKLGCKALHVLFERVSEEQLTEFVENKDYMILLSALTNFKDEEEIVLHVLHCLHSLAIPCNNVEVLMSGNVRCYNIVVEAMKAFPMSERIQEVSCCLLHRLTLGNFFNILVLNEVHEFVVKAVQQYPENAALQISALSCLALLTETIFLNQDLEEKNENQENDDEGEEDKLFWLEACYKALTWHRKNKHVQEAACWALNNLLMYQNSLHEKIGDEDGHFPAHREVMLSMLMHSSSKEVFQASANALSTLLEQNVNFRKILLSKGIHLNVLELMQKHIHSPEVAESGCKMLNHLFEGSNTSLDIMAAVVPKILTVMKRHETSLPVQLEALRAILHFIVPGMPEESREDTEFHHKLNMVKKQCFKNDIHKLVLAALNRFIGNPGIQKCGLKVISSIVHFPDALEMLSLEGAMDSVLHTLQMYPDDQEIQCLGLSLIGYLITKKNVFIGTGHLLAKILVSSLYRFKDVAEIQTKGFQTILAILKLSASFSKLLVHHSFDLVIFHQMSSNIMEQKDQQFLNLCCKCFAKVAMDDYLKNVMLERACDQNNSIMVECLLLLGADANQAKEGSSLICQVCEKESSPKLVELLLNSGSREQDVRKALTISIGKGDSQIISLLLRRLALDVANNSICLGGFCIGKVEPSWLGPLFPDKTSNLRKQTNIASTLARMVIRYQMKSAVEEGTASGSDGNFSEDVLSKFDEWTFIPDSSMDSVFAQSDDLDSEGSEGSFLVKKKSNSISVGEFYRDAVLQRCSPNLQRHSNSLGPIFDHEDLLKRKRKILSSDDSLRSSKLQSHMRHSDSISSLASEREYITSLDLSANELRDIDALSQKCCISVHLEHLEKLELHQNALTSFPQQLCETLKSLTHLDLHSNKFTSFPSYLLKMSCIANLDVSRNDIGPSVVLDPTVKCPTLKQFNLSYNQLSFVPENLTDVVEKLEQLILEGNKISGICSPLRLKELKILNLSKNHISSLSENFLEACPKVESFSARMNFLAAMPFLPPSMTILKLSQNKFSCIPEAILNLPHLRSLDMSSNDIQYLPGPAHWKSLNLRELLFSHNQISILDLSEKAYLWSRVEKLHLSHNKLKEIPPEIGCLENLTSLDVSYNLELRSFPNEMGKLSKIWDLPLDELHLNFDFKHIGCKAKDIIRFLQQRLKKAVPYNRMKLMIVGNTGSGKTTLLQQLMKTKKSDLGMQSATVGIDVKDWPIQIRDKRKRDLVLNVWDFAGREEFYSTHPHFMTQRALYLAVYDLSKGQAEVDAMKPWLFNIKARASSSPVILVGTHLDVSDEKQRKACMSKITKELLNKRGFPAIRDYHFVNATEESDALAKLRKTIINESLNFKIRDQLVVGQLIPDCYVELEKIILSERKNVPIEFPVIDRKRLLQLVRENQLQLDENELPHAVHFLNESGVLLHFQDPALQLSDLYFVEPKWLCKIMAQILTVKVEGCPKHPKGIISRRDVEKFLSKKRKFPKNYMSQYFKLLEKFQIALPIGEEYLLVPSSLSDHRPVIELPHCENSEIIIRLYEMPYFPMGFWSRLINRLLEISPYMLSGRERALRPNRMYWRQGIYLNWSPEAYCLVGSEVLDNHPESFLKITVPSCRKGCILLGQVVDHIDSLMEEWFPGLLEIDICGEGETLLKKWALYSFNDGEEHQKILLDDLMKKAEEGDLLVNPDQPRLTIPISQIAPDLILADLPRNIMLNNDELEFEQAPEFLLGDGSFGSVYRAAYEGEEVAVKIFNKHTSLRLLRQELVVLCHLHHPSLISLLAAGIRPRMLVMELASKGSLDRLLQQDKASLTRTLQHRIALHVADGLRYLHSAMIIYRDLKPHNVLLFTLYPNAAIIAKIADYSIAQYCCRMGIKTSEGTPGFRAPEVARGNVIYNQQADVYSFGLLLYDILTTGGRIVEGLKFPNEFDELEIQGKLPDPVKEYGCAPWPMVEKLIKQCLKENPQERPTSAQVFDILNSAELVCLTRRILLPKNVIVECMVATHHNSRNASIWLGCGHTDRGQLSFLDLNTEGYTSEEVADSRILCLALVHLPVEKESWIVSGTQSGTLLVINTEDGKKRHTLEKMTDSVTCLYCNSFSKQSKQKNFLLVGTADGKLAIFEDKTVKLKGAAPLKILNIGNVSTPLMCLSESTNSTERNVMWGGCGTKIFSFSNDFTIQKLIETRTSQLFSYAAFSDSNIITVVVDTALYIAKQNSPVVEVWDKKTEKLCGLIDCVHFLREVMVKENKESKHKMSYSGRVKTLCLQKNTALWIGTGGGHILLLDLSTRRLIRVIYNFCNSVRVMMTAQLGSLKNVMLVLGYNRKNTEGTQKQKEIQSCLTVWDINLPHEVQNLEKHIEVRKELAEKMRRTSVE

SMILES | Ki
CNc1nc(Nc2cc3cnn(C)c(=O)c3cc2OC)ncc1C(F)(F)F [Compound 17, 7-methoxy-2-methyl-6-(4-(methylamino)-5-(trifluoromethyl)pyrimidin-2-ylamino)phthalazin-1(2H)-one] | 27 nM
CCN1Cc2c(ccc(Nc3ncc(C(F)(F)F)c(NC)n3)c2OC)C1=O [Compound 18, 2-ethyl-4-methoxy-5-(4-(methylamino)-5-(trifluoromethyl)pyrimidin-2-ylamino)isoindolin-1-one] | 9 nM
CNc1nc(Nc2ccc3c(c2OC)CN(C(C)(C)O)C3=O)ncc1C(F)(F)F [Compound 19, 2-(2-hydroxypropan-2-yl)-4-methoxy-5-(4-(methylamino)-5-(trifluoromethyl)pyrimidin-2-ylamino)isoindolin-1-one] | 4 nM
CNc1nc(Nc2ccc3c(c2OC)CN(C2COC2)C3=O)ncc1C(F)(F)F [Compound 20, 4-methoxy-5-(4-(methylamino)-5-(trifluoromethyl)pyrimidin-2-ylamino)-2-(oxetan-3-yl)isoindolin-1-one] | 9 nM
CNc1nc(Nc2cc3c(cc2OC)C(=O)N(C)C3)ncc1C(F)(F)F [Compound 21, 6-methoxy-2-methyl-5-(4-(methylamino)-5-(trifluoromethyl)pyrimidin-2-ylamino)isoindolin-1-one] | 5 nM
CNc1nc(Nc2cc3c(cc2Cl)c(C(=O)N2CCOCC2)cn3C)ncc1C(F)(F)F [Compound 22, (5-chloro-1-methyl-6-(4-(methylamino)-5-(trifluoromethyl)pyrimidin-2-ylamino)-1H-indol-3-yl)(morpholino)methanone] | 3 nM
CNc1nc(Nc2cc3c(cc2OC)C(=O)N(CC(C)(C)O)C3)ncc1C(F)(F)F [Compound 23, 2-(2-hydroxy-2-methylpropyl)-6-methoxy-5-(4-(methylamino)-5-(trifluoromethyl)pyrimidin-2-ylamino)isoindolin-1-one] | 10 nM
CCNc1nc(Nc2cc3c(cc2OC)C(=O)N(CC(C)(C)O)C3)ncc1C(F)(F)F [Compound 24, 5-(4-(ethylamino)-5-(trifluoromethyl)pyrimidin-2-ylamino)-2-(2-hydroxy-2-methylpropyl)-6-methoxyisoindolin-1-one] | 3 nM
CNc1nc(Nc2cc3c(cc2OC)C(=O)N(C2COC2)C3)ncc1C(F)(F)F [Compound 25, 6-methoxy-5-(4-(methylamino)-5-(trifluoromethyl)pyrimidin-2-ylamino)-2-(oxetan-3-yl)isoindolin-1-one] | 6 nM
CCNc1nc(Nc2cc3c(cc2OC)C(=O)N(C2COC2)C3)ncc1C(F)(F)F [Compound 26, 5-(4-(ethylamino)-5-(trifluoromethyl)pyrimidin-2-ylamino)-6-methoxy-2-(oxetan-3-yl)isoindolin-1-one] | 2 nM
CNc1nc(Nc2cc3c(cc2Cl)c(C(=O)N(C)C)cn3C)ncc1C(F)(F)F [Compound 27, 5-chloro-N,N,1-trimethyl-6-(4-(methylamino)-5-(trifluoromethyl)pyrimidin-2-ylamino)-1H-indole-3-carboxamide] | 6 nM
CNc1nc(Nc2cc3c(cc2Cl)c(C(=O)N2CCNCC2)cn3C)ncc1C(F)(F)F [Compound 28, (5-chloro-1-methyl-6-(4-(methylamino)-5-(trifluoromethyl)pyrimidin-2-ylamino)-1H-indol-3-yl)(piperazin-1-yl)methanone] | 4 nM
CCNc1nc(Nc2cc3c(cc2Cl)c(C(=O)N2CCOCC2)cn3C)ncc1C(F)(F)F [Compound 29] | 1 nM
CNc1nc(Nc2cc3c(cc2OC)c(C(=O)N2CCOCC2)cn3C)ncc1C(F)(F)F [Compound 30, (5-methoxy-1-methyl-6-(4-(methylamino)-5-(trifluoromethyl)pyrimidin-2-ylamino)-1H-indol-3-yl)(morpholino)methanone] | 1 nM
CNc1nc(Nc2cc3c(cc2Cl)c(C(=O)N2CCN(C)CC2)cn3C)ncc1C(F)(F)F [Compound 31, (5-chloro-1-methyl-6-(4-(methylamino)-5-(trifluoromethyl)pyrimidin-2-ylamino)-1H-indol-3-yl)(4-methylpiperazin-1-yl)methanone] | 1 nM
CCN1CCN(C(=O)c2cn(C)c3cc(Nc4ncc(C(F)(F)F)c(NC)n4)c(Cl)cc23)CC1 [Compound 32, (5-chloro-1-methyl-6-(4-(methylamino)-5-(trifluoromethyl)pyrimidin-2-ylamino)-1H-indol-3-yl)(4-ethylpiperazin-1-yl)methanone] | 1 nM
CNc1nc(Nc2cc3c(cc2Cl)c(C(=O)N2C[C@@H]4C[C@H]2CO4)cn3C)ncc1C(F)(F)F [Compound 33, (1S,4S)-2-oxa-5-azabicyclo[2.2.1]heptan-5-yl(5-chloro-1-methyl-6-(4-(methylamino)-5-(trifluoromethyl)pyrimidin-2-ylamino)-1H-indol-3-yl)methanone] | 3 nM
